Measured values published in patent US20260078120A1, “SUBSTITUTED PYRIDOPYRIMIDINONES” (MIRATI THERAPEUTICS, INC., priority 2022, published 2026).

Assays:
Assay type in all cases: cell-based
[1] = test system: T47D (PI3Kα H1047R mutant) cells; assay: Inhibition of pAKT formation, alphaLISA SureFire Ultra AKT 1/2/3 (pS473), T47D cells; details: Homo sapiens, T47D
In short: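 AKT Ser473 phosphorylation was quantified by alphaLISA SureFire Ultra after roughly 1 h or 24 h compound exposure at 37 °C. Cells were T47D (12,000/well in HBSS), treated with a 10-point 1:4 series starting at 10.4 μM. Percent of control used alpelisib background and DMSO reference, and IC50 came from four-parameter logistic fitting.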

[2] = test system: SKBR3 (PI3Kα wild type) cells; assay: Inhibition of pAKT formation, alphaLISA SureFire Ultra AKT 1/2/3 (pS473), SKBR3 cells; details: Homo sapiens, SK-BR-3; Inhibition of pAKT in SKBR3 (PI3Kα wild type) cells; read-out: SKBR3 (WT) pAKT IC50 (nM) (H1047R mutant) IC50
Protocol: The ability of a compound of Formula (I) to inhibit the formation of pAKT was measured using alphaLISA Surefire Ultra AKT 1/2/3 (pS473) Assay Kit (#ALSU-PAKT-B50K) was obtained from Perkin Elmer (Waltham, MA).
To prepare assay plates for pAKT alphaLISA assays, cells were trypsinized, resuspended in fresh media, and viable cells were counted utilizing trypan blue exclusion. Prior to seeding, cells were washed with PBS and resuspended in HBSS (Gibco, #14025092). T47D (12,000/w), SKBR3(12,000/w), or MKN1(24,000/w) cells were seeded at 12 μl per well in a solid white flat bottom 384 cell culture plate (Perkin Elmer #6007680).
Immediately after seeding, cells were dosed using an Echo Liquid Handler (Beckman Coulter) with compounds at a […] starting concentration and serially diluted (1:4) for a total of 10 concentrations. […] Cells were incubated with the compounds (solubilized in DMSO) for approximately one hour or 24 hours at 37° C. After one hour (or 24 hours) of treatment, cells were lysed with 3 μl of the 5× lysis buffer (provided and incubated at room temperature for 15 min on a microtiter plate shaker). Once cells were sufficiently lysed, 7.5 μl of the acceptor bead mix (made using the manufacturers recommended dilutions) was added to each well and left on the microtiter plate shaker for 1 min prior to incubating plates at room temperature for one hour, in the absence of light. After one hour of incubation with the acceptor bead mix, 7.5 μl of the donor bead mix (made using the manufacturers recommended dilutions) was added to each well and left on the microtiter plate shaker for 1 min prior to incubating plates at room temperature overnight in the absence of light. Plates were then imaged the following day using a CLARIOstar microplate reader (BMG Labtech, Germany).
Percent of control values were calculated by subtracting the average signal from the positive control (alpelisib) treated wells from all treated wells (including DMSO control wells) and then divided by the average signal from the vehicle DMSO treated control wells. Percent of vehicle control values were plotted as log (inhibitor) vs. response-Variable slope (four parameters) for curve fitting and IC50 values were determined using XLfit.
Key: N.D. =not determined

[3] = test system: T47D (PI3Kα H1047R mutant) cells; assay: CellTiter-Glo 2.0 luminescent cell viability assay, 72 hours, T47D cells
In short: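 Viability was measured by CellTiter-Glo 2.0 luminescence after approximately 72 h of compound exposure at 37° C. Plating was 1000 cells per well the day before dosing, with ten 1:4 dilutions from a 10 µM top concentration. Values as percent of vehicle were fitted by variable-slope log(inhibitor) regression to give IC50.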

[4] = test system: SKBR3 (PI3Kα wild type) cells; assay: CellTiter-Glo 2.0 luminescent cell viability assay, 72 hours, SKBR3 cells; details: Homo sapiens, SK-BR-3, 72 h
In short: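 Viability measured via CTG luminescence following roughly 72 hours of compound exposure at 37° C. Dosing used a 10 um starting concentration diluted 1:4 over 10 points; percent-of-vehicle data fitted with a variable-slope four-parameter model for IC50.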

[5] = T47D (PI3Kα H1047R mutant) cells, inhibition of pAKT (pS473) formation, approximately one hour or 24 hours treatment, read-out: T47D pAKT (H1047R mutant) IC50
[6] = Homo sapiens, T47D, 72 h, T47D (PI3Kα H1047R mutant) cells, CellTiter-Glo, approximately 72 hours, read-out: T47D (H1047R mutant) Viability IC50
[7] = SKBR3 (PI3Kα wild type) cells, CellTiter-Glo, approximately 72 hours, read-out: SKBR3 (WT) Viability IC50

SMILES: Cc1ccc(-c2cc(=O)n3cc(C)cc(C(C)Nc4ccccc4C(=O)O)c3n2)cc1 (stereo not shown) [7-2, 2-((1-(7-methyl-4-oxo-2-(p-tolyl)-4H-pyrido[1,2-a]pyrimidin-9-yl)ethyl)amino)benzoic acid]
- IC50 [1, 5]: > 100000 nM
- IC50 [2]: > 10000 nM
- IC50 [3, 6]: > 10000 nM
- IC50 [4, 7]: > 10000 nM

SMILES: Cc1cc(C(C)Nc2ccccc2C(=O)O)c2nc(N3CCCCC3)cc(=O)n2c1 (stereo not shown) [Example 2, 2-((1-(7-methyl-4-oxo-2-(piperidin-1-yl)-4H-pyrido[1,2-a]pyrimidin-9-yl)ethyl)amino) benzoic acid]
- IC50 ([1]; read-out: T47D pAKT (H1047R mutant) IC50 (nM)): 14 nM
- IC50 [2]: > 10000 nM
- IC50 ([3]; Homo sapiens, T47D, 72 h, read-out: T47D (H1047R mutant) Viability IC50 (nM)): 2970 nM
- IC50 ([4]; read-out: SKBR3 (WT) Viability IC50 (nM)): > 10000 nM

SMILES: Cc1cc([C@@H](C)Nc2ccccc2C(=O)O)c2nc(N3CCC(F)(F)CC3)c(C#N)c(=O)n2c1 [Example 10-23, (R)-2-((1-(3-cyano-2-(4,4-difluoropiperidin-1-yl)-7-methyl-4-oxo-4H-pyrido[1,2-a]pyrimidin-9-yl)ethyl)amino)benzoic acid]
- IC50 [1, 5]: 1.35 nM
- IC50 [2]: 1200 nM
- IC50 [3, 6]: 48.3 nM
- IC50 [4, 7]: 8970 nM

SMILES: Cc1cc([C@@H](C)Nc2ccccc2C(=O)O)c2nc(N3CC(F)(F)C3)c(C#N)c(=O)n2c1 [Example 10-27, (R)-2-((1-(3-cyano-2-(3,3-difluoroazetidin-1-yl)-7-methyl-4-oxo-4H-pyrido[1,2-a]pyrimidin-9-yl)ethyl)amino)benzoic acid]
- IC50 [1, 5]: 2.1 nM
- IC50 [2]: 780 nM
- IC50 [3, 6]: 52 nM
- IC50 [4, 7]: > 10000 nM

SMILES: Cc1cc([C@@H](C)Nc2cscc2C(=O)O)c2nc(N3CCC(F)(F)CC3)c(C#N)c(=O)n2c1 [Example 10-61, (R)-4-((1-(3-cyano-2-(4,4-difluoropiperidin-1-yl)-7-methyl-4-oxo-4H-pyrido[1,2-a]pyrimidin-9-yl)ethyl)amino)thiophene-3-carboxylic acid]
- IC50 [1, 5]: 7.7 nM
- IC50 [2]: 3650 nM
- IC50 [3, 6]: 183 nM
- IC50 [4, 7]: > 10000 nM

SMILES: Cc1cc([C@@H](C)Nc2cccc(F)c2C(=O)O)c2nc(N3CCC(F)(F)CC3)c(C#N)c(=O)n2c1 [Example 10-62, (R)-2-((1-(3-cyano-2-(4,4-difluoropiperidin-1-yl)-7-methyl-4-oxo-4H-pyrido[1,2-a]pyrimidin-9-yl)ethyl)amino)-6-fluorobenzoic acid]
- IC50 [1, 5]: 4.84 nM
- IC50 [2]: 8650 nM
- IC50 [3, 6]: 566 nM
- IC50 [4, 7]: > 10000 nM

SMILES: Cc1cc([C@@H](C)Nc2nccnc2C(=O)O)c2nc(N3CCC(F)(F)CC3)c(C#N)c(=O)n2c1 [Example 10-63, (R)-3-((1-(3-cyano-2-(4,4-difluoropiperidin-1-yl)-7-methyl-4-oxo-4H-pyrido[1,2-a]pyrimidin-9-yl)ethyl)amino)pyrazine-2-carboxylic acid]
- IC50 [1, 5]: 144 nM
- IC50 [2]: > 10000 nM
- IC50 [3, 6]: 3720 nM
- IC50 [4, 7]: > 10000 nM

SMILES: Cc1cc([C@@H](C)Nc2ccc(Cl)cc2C(=O)O)c2nc(N3CCC(F)(F)CC3)c(C#N)c(=O)n2c1 [Example 10-64, (R)-5-chloro-2-((1-(3-cyano-2-(4,4-difluoropiperidin-1-yl)-7-methyl-4-oxo-4H-pyrido[1,2-a]pyrimidin-9-yl)ethyl)amino)benzoic acid]
- IC50 [1, 5]: 16.1 nM
- IC50 [2]: 847 nM
- IC50 [3, 6]: 628 nM
- IC50 [4, 7]: > 10000 nM

SMILES: Cc1cc([C@@H](C)Nc2ccccc2C(=O)O)c2nc(C3CCC(F)(F)CC3)c(C#N)c(=O)n2c1 [Example 10-65, (R)-2-((1-(3-cyano-2-(4,4-difluorocyclohexyl)-7-methyl-4-oxo-4H-pyrido[1,2-a]pyrimidin-9-yl)ethyl)amino)benzoic acid]
- IC50 [1, 5]: 3.25 nM
- IC50 [2]: 681 nM
- IC50 [3, 6]: 246 nM
- IC50 [4, 7]: > 10000 nM

SMILES: Cc1cc([C@@H](C)Nc2ccccc2C(=O)O)c2nc(N3CC4(C3)CC(F)(F)C4)c(C#N)c(=O)n2c1 [Example 10-66, (R)-2-((1-(3-cyano-2-(6,6-difluoro-2-azaspiro[3.3]heptan-2-yl)-7-methyl-4-oxo-4H-pyrido[1,2-a]pyrimidin-9-yl)ethyl)amino)benzoic acid]
- IC50 [1, 5]: 1370 nM
- IC50 [2]: > 10000 nM
- IC50 [3, 6]: > 10000 nM
- IC50 [4, 7]: > 10000 nM

SMILES: Cc1cc([C@@H](C)Nc2ccccc2C(=O)O)c2nc(N3CC4CC(C4)C3)c(C)c(=O)n2c1 [Example 10-124, (R)-2-((1-(2-(3-azabicyclo[3.1.1]heptan-3-yl)-3,7-dimethyl-4-oxo-4H-pyrido[1,2-a]pyrimidin-9-yl)ethyl)amino)benzoic acid]
- IC50 [1, 5]: 1.59 nM
- IC50 [3, 6]: 105 nM
- IC50 [4, 7]: > 10000 nM

SMILES: Cc1cc([C@@H](C)Nc2ccccc2C(=O)O)c2nc(N3CCN(CC(F)(F)F)CC3)c(C)c(=O)n2c1 [Example 10-125, (R)-2-((1-(3,7-dimethyl-4-oxo-2-(4-(2,2,2-trifluoroethyl)piperazin-1-yl)-4H-pyrido[1,2-a]pyrimidin-9-yl)ethyl)amino)benzoic acid]
- IC50 [1, 5]: 3.13 nM
- IC50 [3, 6]: 107 nM
- IC50 [4, 7]: > 10000 nM

SMILES: Cc1cc([C@@H](C)Nc2ccccc2C(=O)O)c2nc(N3CCC(F)(F)[C@H](C)C3)c(C)c(=O)n2c1 [Example 10-126, 2-(((R)-1-(2-((R)-4,4-difluoro-3-methylpiperidin-1-yl)-3,7-dimethyl-4-oxo-4H-pyrido[1,2-a]pyrimidin-9-yl)ethyl)amino)benzoic acid]
- IC50 [1, 5]: 2.64 nM
- IC50 [3, 6]: 109 nM
- IC50 [4, 7]: > 10000 nM

SMILES: Cc1cc([C@@H](C)Nc2ccccc2C(=O)O)c2nc(N3CCC(F)(F)[C@@H](C)C3)c(C)c(=O)n2c1 [Example 10-127, 2-(((R)-1-(2-((S)-4,4-difluoro-3-methylpiperidin-1-yl)-3,7-dimethyl-4-oxo-4H-pyrido[1,2-a]pyrimidin-9-yl)ethyl)amino)benzoic acid]
- IC50 [1, 5]: 1.19 nM
- IC50 [3, 6]: 74.4 nM
- IC50 [4, 7]: > 10000 nM

SMILES: Cc1cc([C@@H](C)Nc2ccccc2C(=O)O)c2nc(N3CCN(c4cccnc4C#N)CC3)c(C)c(=O)n2c1 [Example 10-131, (R)-2-((1-(2-(4-(2-cyanopyridin-3-yl)piperazin-1-yl)-3,7-dimethyl-4-oxo-4H-pyrido[1,2-a]pyrimidin-9-yl)ethyl)amino)benzoic acid]
- IC50 [1, 5]: 1.86 nM
- IC50 [3, 6]: 48.8 nM
- IC50 [4, 7]: > 10000 nM

SMILES: Cc1cc([C@@H](C)Nc2ccccc2C(=O)O)c2nc(N3Cc4cc(F)c(F)cc4C3)c(C)c(=O)n2c1 [Example 10-140, (R)-2-((1-(2-(5,6-difluoroisoindolin-2-yl)-3,7-dimethyl-4-oxo-4H-pyrido[1,2-a]pyrimidin-9-yl)ethyl)amino)benzoic acid]
- IC50 [1, 5]: 572 nM
- IC50 ([3]; T47D (PI3Kα H1047R mutant) cells, CellTiter-Glo, approximately 72 hours, read-out: T47D (H1047R mutant) Viability IC50): 75.8 nM
- IC50 [4, 7]: > 10000 nM

SMILES: Cc1cc([C@@H](C)Nc2ccccc2C(=O)O)c2nc(N3CC4CC3C(F)(F)C4)c(C)c(=O)n2c1 (stereo partly drawn) [Example 10-141, 2-(((1R)-1-(2-(6,6-difluoro-2-azabicyclo[2.2.1]heptan-2-yl)-3,7-dimethyl-4-oxo-4H-pyrido[1,2-a]pyrimidin-9-yl)ethyl)amino)benzoic acid]
- IC50 [1, 5]: 4.1 nM
- IC50 [3, 6]: 163 nM
- IC50 [4, 7]: > 10000 nM
